# From patent US4748155A, “Pharmacologically active tripeptides and process for their synthesis” (Eniricerche S.p.A., priority 1985, dated 1988)
# Tested on: acetic acid-induced writhings in mice
# Details: mouse, in vivo, ip
# Description: The analgesic activity has been tested by means of the writhing test. As the painful agent, an aqueous solution of acetic acid at 3% was used, injected by intraperitoneal way (0.1 ml/10 g), and the number was recorded of animal' writhings during the observation time of 20 minutes.
# Twenty female mice of Albino Swiss strain, weighing 25-28 g, were treated with the compound under test, dissolved in physiologic solution:dimethylsulphoxide (1:1), at the dosage of 0.1 ml/kg/i.p. Other 20 mice, of same strain, sex and weight, were treated with the solvent only. After 40 minutes, the acetic acid was administered to both groups, and the increase of writhings was recorded.
compound,measurement,value
"CC(C)C[C@@H](NC(=O)C(Cc1c[nH]c2ccccc12)C(=O)O)NC(=O)[C@@H]1CCC(=O)N1 (stereo partly drawn) [GLP-g-Leu-m-TRP-OH, N-(pyroglutamyl)-N'-[(R,S)-alpha-carboxy-beta-3-indolyl-propanoyl]-(S)-1,1-diamino-isopentane]",inhibition of the number of contorsions (writhings),25%
